Assay results published in patent US10098938B2, “Peptides and combination of peptides for use in immunotherapy against various cancers” (immatics biotechnologies GmbH, priority 2015, dated 2018).

Key:
[1] = test system: CD8+ T cells; assay: In vitro immunogenicity: T-cell priming with aAPCs loaded with peptide/MHC and anti-CD28, pMHC multimer readout; type: cell-based, human; conditions: in vitro immunogenicity of HLA class I peptides; for Wells positive [%]: pMHC multimer readout after T-cell priming
Description: In order to obtain information regarding the immunogenicity of the TUMAPs of the present invention, the inventors performed investigations using an in vitro T-cell priming assay based on repeated stimulations of CD8+ T cells with artificial antigen presenting cells (aAPCs) loaded with peptide/MHC complexes and anti-CD28 antibody.
In order to perform in vitro stimulations by artificial antigen presenting cells loaded with peptide-MHC complex (pMHC) and anti-CD28 antibody, the inventors first isolated CD8+ T cells from fresh HLA-A*02 leukapheresis products via positive selection using CD8 microbeads (Miltenyi Biotec, Bergisch-Gladbach, Germany) of healthy donors obtained from the University clinics Mannheim, Germany, after informed consent.
PBMCs and isolated CD8+ lymphocytes were incubated in T-cell medium (TCM) until use consisting of RPMI-Glutamax (Invitrogen, Karlsruhe, Germany) supplemented with 10% heat inactivated human AB serum (PAN-Biotech, Aidenbach, Germany), 100 U/ml Penicillin/100 μg/ml Streptomycin (Cambrex, Cologne, Germany), 1 mM sodium pyruvate (CC Pro, Oberdorla, Germany), 20 μg/ml Gentamycin (Cambrex). 2.5 ng/ml IL7 (PromoCell, Heidelberg, Germany) and 10 U/ml IL-2 (Novartis Pharma, Nürnberg, Germany) were also added to the TCM at this step.
Generation of pMHC/anti-CD28 coated beads, T-cell stimulations and readout was performed in a highly defined in vitro system using four different pMHC molecules per stimulation condition and 8 different pMHC molecules per readout condition.
The purified co-stimulatory mouse IgG2a anti human CD28 Ab 9.3 (Jung et al., 1987) was chemically biotinylated using Sulfo-N-hydroxysuccinimidobiotin as recommended by the manufacturer (Perbio, Bonn, Germany). Beads used were 5.6 μm diameter streptavidin coated polystyrene particles (Bangs Laboratories, Illinois, USA).
pMHC used for positive and negative control stimulations were A*0201/MLA-001 (peptide […] (SEQ ID NO. 303) from modified Melan-A/MART-1) and A*0201/DDX5-001 ([…] from DDX5, SEQ ID NO. 304), respectively.
800.000 beads/200 μl were coated in 96-well plates in the presence of 4×12.5 ng different biotin-pMHC, washed and 600 ng biotin anti-CD28 were added subsequently in a volume of 200 μl. Stimulations were initiated in 96-well plates by co-incubating […] CD8+ T cells with 2×10^5 washed coated beads in 200 μl TCM supplemented with 5 ng/ml IL-12 (PromoCell) for 3 days at 37° C. Half of the medium was then exchanged by fresh TCM supplemented with 80 U/ml IL-2 and incubating was continued for 4 days at 37° C. This stimulation cycle was performed for a total of three times. For the pMHC multimer readout using 8 different pMHC molecules per condition, a two-dimensional combinatorial coding approach was used as previously described (Andersen et al., 2012) with minor modifications encompassing coupling to 5 different fluorochromes. Finally, multimeric analyses were performed by staining the cells with Live/dead near IR dye (Invitrogen, Karlsruhe, Germany), CD8-FITC antibody clone SK1 (BD, Heidelberg, Germany) and fluorescent pMHC multimers. For analysis, a BD LSRII SORP cytometer equipped with appropriate lasers and filters was used. Peptide specific cells were calculated as percentage of total CD8+ cells. Evaluation of multimeric analysis was done using the FlowJo software (Tree Star, Oregon, USA). In vitro priming of specific multimer+ CD8+ lymphocytes was detected by comparing to negative control stimulations.

[2] = test system: HLA-A*24; assay: MHC binding assay, UV-ligand exchange with β2m ELISA, HLA-A*24; set-up: species or system human; conditions: binding to HLA-A*24 ranged by peptide exchange yield
Description: Candidate peptides for T cell based therapies according to the present invention were further tested for their MHC binding capacity (affinity). The individual peptide-MHC complexes were produced by UV-ligand exchange, where a UV-sensitive peptide is cleaved upon UV-irradiation, and exchanged with the peptide of interest as analyzed. Only peptide candidates that can effectively bind and stabilize the peptide-receptive MHC molecules prevent dissociation of the MHC complexes. To determine the yield of the exchange reaction, an ELISA was performed based on the detection of the light chain (β2m) of stabilized MHC complexes. The assay was performed as generally described in Rodenko et al. (Rodenko et al., 2006).
96 well MAXISorp plates (NUNC) were coated over night with 2 ug/ml streptavidin in PBS at room temperature, washed 4× and blocked for 1 h at 37° C. in 2% BSA containing blocking buffer. Refolded HLA-A*02:01/MLA-001 monomers served as standards, covering the range of 15-500 ng/ml. Peptide-MHC monomers of the UV-exchange reaction were diluted 100 fold in blocking buffer. Samples were incubated for 1 h at 37° C., washed four times, incubated with 2 ug/ml HRP conjugated anti-β2m for 1 h at 37° C., washed again and detected with TMB solution that is stopped with […]. Absorption was measured at 450 nm. Candidate peptides that show a high exchange yield (preferably higher than 50%, most preferred higher than 75%) are generally preferred for a generation and production of antibodies or fragments thereof, and/or T cell receptors or fragments thereof, as they show sufficient avidity to the MHC molecules and prevent dissociation of the MHC complexes.

| Substance | Wells positive [%] [1] | Peptide exchange [2] | further results |
| --- | --- | --- | --- |
| 5 (GIVAHIQEV; listed as Homo sapiens) [compound 5] | + (<20% = +) | – | – |
| 18 (ILLDLTDNRL; listed as Homo sapiens) [compound 18] | + (<20% = +) | – | – |
| 23 (SLFSDEFKV; listed as Homo sapiens) [compound 23] | ++++ (> = 70% = ++++) | – | – |
| 26 (ALQEELTEL; listed as Homo sapiens) [compound 26] | + (<20% = +) | – | – |
| 29 (YLLDPSITL; listed as Homo sapiens) [compound 29] | + (<20% = +) | – | – |
| 31 (TITETTVEV; listed as Homo sapiens) [compound 31] | + (<20% = +) | – | – |
| 35 (FLLPFSTVYL; listed as Homo sapiens) [compound 35] | + (<20% = +) | – | – |
| 90 (FLQDLEQRL; listed as Homo sapiens) [compound 90] | + (<20% = +) | – | – |
| 141 (FLDKVLVAA; listed as Homo sapiens) [compound 141] | + (<20% = +) | – | – |
| 149 (ILNTHITEL; listed as Homo sapiens) [compound 149] | + (<20% = +) | – | – |
| 160 (VYTLDIPVL; listed as Homo sapiens) [compound 160] | – | ++++ (> = 75% = ++++) | – |
| 161 (IYLVSIPEL; listed as Homo sapiens) [compound 161] | – | ++++ (> = 75% = ++++) | – |
| 166 (YYVESGKLF; listed as Homo sapiens) [compound 166] | – | ++++ (> = 75% = ++++) | – |
| 168 (KYQDILETI; listed as Homo sapiens) [compound 168] | – | ++++ (> = 75% = ++++) | – |
| 172 (TYTTVPRVAF; listed as Homo sapiens) [compound 172] | – | ++++ (> = 75% = ++++) | – |
| 173 (IYSWILDHF; listed as Homo sapiens) [compound 173] | – | ++++ (> = 75% = ++++) | – |
| 175 (YYEVHKELF; listed as Homo sapiens) [compound 175] | – | ++++ (> = 75% = ++++) | – |
| 177 (VYPWLGALL; listed as Homo sapiens) [compound 177] | – | ++++ (> = 75% = ++++) | – |
| 179 (MYDSYWRQF; listed as Homo sapiens) [compound 179] | – | ++++ (> = 75% = ++++) | – |
| 181 (LYLDIINLF; listed as Homo sapiens) [compound 181] | – | ++++ (> = 75% = ++++) | – |
| 184 (VFQNFPLLF; listed as Homo sapiens) [compound 184] | – | ++++ (> = 75% = ++++) | – |
| 186 (IFPQFLYQF; listed as Homo sapiens) [compound 186] | – | ++++ (> = 75% = ++++) | – |
| 187 (TYLRDQHFL; listed as Homo sapiens) [compound 187] | – | ++++ (> = 75% = ++++) | – |
| 192 (SYALLTYMI; listed as Homo sapiens) [compound 192] | – | ++++ (> = 75% = ++++) | – |
| 193 (RFHPTPLLL; listed as Homo sapiens) [compound 193] | – | ++++ (> = 75% = ++++) | – |
| 194 (EFGSLHLEFL; listed as Homo sapiens) [compound 194] | – | + (<20% = +) | – |
| 195 (TYSVSFPMF; listed as Homo sapiens) [compound 195] | – | ++++ (> = 75% = ++++) | – |

| Substance | Wells positive [%] [1] | Peptide exchange [2] | further results |
| --- | --- | --- | --- |
| 196 (LYIDRPLPYL; listed as Homo sapiens) [compound 196] | ++++ (> = 70% = ++++) | – | – |
| 197 (EYSLFPGQVVI; listed as Homo sapiens) [compound 197] | + (<20% = +) | – | – |
| 202 (VYWDSAGAAHF; listed as Homo sapiens) [compound 202] | – | ++++ (> = 75% = ++++) | – |
| 207 (AYVVFVSTL; listed as Homo sapiens) [compound 207] | + (<20% = +) | – | – |
| 210 (IYTMIYRNL; listed as Homo sapiens) [compound 210] | – | ++++ (> = 75% = ++++) | – |
| 211 (YYLEVGKTLI; listed as Homo sapiens) [compound 211] | – | ++++ (> = 75% = ++++) | – |
| 216 (QYSSVFKSL; listed as Homo sapiens) [compound 216] | – | ++++ (> = 75% = ++++) | – |
| 217 (FFPPTRQMGLLF; listed as Homo sapiens) [compound 217] | – | ++++ (> = 75% = ++++) | – |
| 218 (YYKSTSSAF; listed as Homo sapiens) [compound 218] | + (<20% = +) | – | – |
| 227 (IFLDYEAGTLSF; listed as Homo sapiens) [compound 227] | – | ++++ (> = 75% = ++++) | – |
| 228 (KYTSWYVAL; listed as Homo sapiens) [compound 228] | – | ++++ (> = 75% = ++++) | – |
| 230 (KLQNIMMLL; listed as Homo sapiens) [compound 230] | ++++ (> = 70% = ++++) | – | – |
| 267 (KYMVYPQTF; listed as Homo sapiens) [compound 267] | – | ++++ (> = 75% = ++++) | – |
| 268 (QYLGQIQHI; listed as Homo sapiens) [compound 268] | + (<20% = +) | – | – |
| 269 (YFIDSTNLKTHF; listed as Homo sapiens) [compound 269] | + (<20% = +) | – | – |
| 271 (LYHDIFSRL; listed as Homo sapiens) [compound 271] | – | ++++ (> = 75% = ++++) | – |
| 272 (QYLQDAYSF; listed as Homo sapiens) [compound 272] | – | ++++ (> = 75% = ++++) | – |
| 274 (AYLHSHALI; listed as Homo sapiens) [compound 274] | – | ++++ (> = 75% = ++++) | – |
| 276 (VYGFQWRHF; listed as Homo sapiens) [compound 276] | – | ++++ (> = 75% = ++++) | – |
| 277 (VYQGHTALL; listed as Homo sapiens) [compound 277] | – | ++++ (> = 75% = ++++) | – |
| 278 (RYISDQLFTNF; listed as Homo sapiens) [compound 278] | – | ++++ (> = 75% = ++++) | – |
| 280 (RYPDNLKHLYL; listed as Homo sapiens) [compound 280] | – | ++++ (> = 75% = ++++) | – |
| 282 (KFVDSTFYL; listed as Homo sapiens) [compound 282] | – | ++++ (> = 75% = ++++) | – |
| 285 (HYPPVQVLF; listed as Homo sapiens) [compound 285] | + (<20% = +) | – | – |
| 289 (KYPVEWAKF; listed as Homo sapiens) [compound 289] | – | ++++ (> = 75% = ++++) | – |
| 291 (KLDETGNSL; listed as Homo sapiens) [compound 291] | – | – | Wells ([1]; CD8+ T cells of healthy donors, three stimulation cycles, multimer staining): + (<20% = +) |
